The values that follow come from ChEMBL document CHEMBL1157539, “Thousands of chemical starting points for antimalarial lead identification” (Nature, 2010).

The assay relates to Plasmodium falciparum. Description: GSK_TCMDC: Inhibition of Plasmodium falciparum 3D7 in whole erythrocytes, using parasite LDH activity as an index of growth. The note with it: Plasmodium falciparum, 3D7. It is filed as functional, organism-based.

In turn, `CN(C)CCC(O)(c1ccc(Br)cc1)c1cccnc1` (stereo unspecified) came in with an XC50 of 831 nM.

With `COc1ccc(Cl)cc1-c1nc(C(=O)NCCN2CCCCC2)c(C)s1`, the XC50 was 938 nM. `CC(=O)c1ccc2c(c1)CCN(CCC1CCC(NC(=O)c3cc4ccccc4[nH]3)CC1)CC2` (stereo unspecified) came in with an XC50 of 982 nM. For `CCNc1cc(C)nc(Nc2ccc(NC(=O)Cc3ccc(OC)cc3)cc2)n1` the value was 1380 nM. `CC(C)Cn1c(N)cc(=O)n(C)c1=O` returned an XC50 of 978 nM.

In the case of `CCC1CN2CCc3c([nH]c4ccccc34)[C@@H]2C[C@@H]1CC1NCCc2cc(OC)c(OC)cc21` (stereo partly specified), the XC50 amounted to 865 nM.

`c1ccc2cc(CNCCCN3CCN(CCCNCc4ccc5ccccc5c4)CC3)ccc2c1` displayed an XC50 of 545 nM. `CCOc1cc(Cc2cnc(N)nc2N)cc(OCC)c1-n1cccc1` [EPIROPRIM]: the XC50 came to 761 nM. For `CCC1N=C(N)N=C(N)N1OCc1cccc2ccccc12` (stereo unspecified) the value was 3.2 nM. For `O=C(CNC1CCCCC1)Nc1cccc(C(=O)Nc2cccc(C(F)(F)F)c2)c1` the value was 416 nM; for `Cc1ncc([N+](=O)[O-])n1CCOC(=O)NC(Nc1ccc(Br)cc1)C(Cl)(Cl)Cl` (stereo unspecified), 962 nM; for `O=C(Nc1ccc(CCNCc2ccccc2)cc1)Nc1ccc(OC(F)(F)F)cc1`, 584 nM.

With `CCCCCCCN1CCC(CC(=O)Nc2ccnc3ccc(OC)cc23)C(CC)C1` (stereo unspecified), the XC50 is 593 nM. Compound `CN1CCC(NCc2ccc(-c3ccc(C(F)(F)F)cc3)cc2)CC1` showed an XC50 of 798 nM.

Turning to `CC(C)C(C(=O)Nc1ccc2c(c1)OCO2)c1ccc(Cl)cc1` (stereo unspecified), the XC50 was 717 nM. For `Cc1csc(-c2ccc3[nH]cc(C4=CCN(C)CC4)c3c2)n1` the value was 754 nM. For `NC(=O)c1ccsc1NC(=O)CNC(c1ccccc1)c1ccc(Cl)cc1` (stereo unspecified) the value was 262 nM; for `Cc1nc(C)c(-c2ccc(C(=O)c3ccc(Cl)cc3)cc2)c(O)c1Br`, 810 nM; for `O=C(Nc1ccc(NC2=NCCN2)cc1)Nc1ccc(NC2=NCCN2)cc1`, 845 nM.

In the case of `Cc1cc(N[C@@H](CC(C)C)C(=O)Nc2ccccc2)nc(NCCc2ccccc2)n1`, the XC50 worked out at 888 nM. Consider `Nc1nc(N)c2c(Oc3cccc(Cl)c3)cccc2n1`, for which the XC50 was 471 nM.

Regarding `CC[C@H]1CN2CC[C@H]1C[C@@H]2[C@@H](O)c1ccnc2ccc(OC)cc12`, the XC50 is 119 nM.

Compound `CCN(CCN(C)C)Cc1ccc(-c2ccc(NS(=O)(=O)c3cccc4cccnc34)cc2)cc1` gave an XC50 of 931 nM. For `O=c1cc(NCCCNCc2sc(Br)c(Br)c2Br)[nH]c2ccccc12` the value was 1010 nM; for `Clc1cc(Br)ccc1-c1ccc(CNCC2CCNCC2)o1`, 1510 nM. For `CCOC(=O)c1ccc(-c2cnoc2-c2cc(CC)c(OC)cc2O)o1` the value was 275 nM; for `Clc1ccc(Nc2nc(NCc3ccccc3)nc(N/N=C/c3ccccn3)n2)cc1`, 776 nM. For `CN1CCC(C(=O)N(Cc2ccc(-c3ccc(CNCCc4ccccc4)cn3)cc2)C2CCN(Cc3ccccc3)CC2)CC1` the value was 787 nM. `O=C(Nc1ccc(OC2CCN(Cc3ccsc3)C2)c(Cl)c1)c1ccc2ncccc2c1` (stereo unspecified): the XC50 was 966 nM. Compound `Cc1cnccc1/C=C/c1cccc(OCCN2CCc3ccc(S(C)(=O)=O)cc3CC2)c1` returned an XC50 of 267 nM. As to `COC(=O)C(=C(C)C)N1C(=O)[C@@H](NC(=O)OCc2ccccc2)[C@H]1SS[C@@H]1[C@H](NC(=O)OCc2ccccc2)C(=O)N1C(C(=O)OC)=C(C)C`, the XC50 was found to be 434 nM.

The compound `Cc1cc(NC(=O)NCCN2CCC(NS(=O)(=O)c3ccccc3F)CC2)c2ccccc2n1` displayed an XC50 of 949 nM.

`COc1ccccc1C1CCN(C2CCC(NC(=O)/C=C/c3ccc(OC(F)(F)F)cc3)CC2)CC1` (stereo unspecified) gave an XC50 of 1350 nM. Consider `O=C(CCn1cncn1)N1CCCC(c2[nH]c3ccccc3c2-c2ccncc2)C1` (stereo unspecified), for which the XC50 was found to be 800 nM.

`Oc1ccc(CCNc2nc(NCCOc3cccc4ccccc34)nc(N3CCNCC3)n2)cc1` gave an XC50 of 901 nM.

`COc1cc(C(=O)NCCCN2CCN(c3cc(Cl)ccc3OC)CC2)ccc1-c1nc2cc(Cl)c(Cl)cc2[nH]1` registered an XC50 of 731 nM. The compound `CCN(CC)/C(=N/C(=N)NCc1ccc(Cl)cc1Cl)NCCCCCCN/C(=N\C(=N)NCc1ccc(Cl)cc1Cl)N(CC)CC` had an XC50 of 218 nM. `CN(C)CCNC(=O)[C@H](CC1CCCCC1)NC(=O)c1ccc(O)c(-c2ccc(Cl)c(Cl)c2)c1`: the XC50 was 775 nM. Regarding `O=C(N[C@@H](Cc1ccccc1)C(=O)NC1CCCCC1)c1ccc(O)c(-c2cccc(C(F)(F)F)c2)c1`, the XC50 was found to be 809 nM. For `CCCNCc1ccc(-c2ccc(CN(CC3CCCO3)C(=O)COc3ccccc3Cl)cc2)nc1` (stereo unspecified) the value was 1180 nM; for `CCCc1cc(=O)[nH]c(-n2nc(C)cc2NC(=O)C(CC)c2ccccc2)n1` (stereo unspecified), 944 nM.

On to `Cc1cccc2nc(-c3ccc(-c4ccc(CNCCN5CCNCC5)cc4)s3)[nH]c12`, for which the XC50 worked out at 1150 nM. In the case of `O=C(Nc1ccsc1)Nc1cccc(-c2cccc(-c3nc4ccccc4[nH]3)c2)c1`, the XC50 was found to be 117 nM. For `O[C@H]1[C@H](OCc2ccc(-c3ccccc3)cc2)CC[C@@H]1N1CCCCC1` the value was 1060 nM; for `CC(C)c1ccc(NC(=O)c2cccc(CN3CCCN(Cc4cccc(O)c4)CC3)c2)cc1`, 772 nM; for `CCn1cc2c3c(cc(C(=O)N[C@@H](Cc4ccccc4)[C@H](O)CNCc4cccc(OC)c4)cc31)N(C)S(=O)(=O)CC2`, 667 nM.

`C[C@@H](C(=O)N1CCOCC1)N1CC[C@H](NS(=O)(=O)c2ccc3ccnc(N)c3c2)C1=O`: the XC50 came out at 1500 nM. For `COc1cc(-c2nc(-c3ccc([N+](=O)[O-])cc3)c(-c3ccccc3)[nH]2)cc(OC)c1O` the value was 830 nM; for `CN(Cc1cccc(F)c1)C1CCCN(c2cc(NC(=O)c3ccccc3)ccn2)C1` (stereo unspecified), 919 nM.

As for `OC1CCC(Nc2ccc3ncc(-c4ccc(Cl)cc4)n3n2)CC1` (stereo unspecified), the XC50 amounted to 824 nM. For `Cc1ccc(C)c(-n2c(SCC(=O)Nc3ccc(C(N)=O)cc3)nnc2-c2cccc(Cl)c2)c1` the value was 845 nM. Turning to `CN(C)CCN(C)Cc1ccc(-c2ccc3c(Nc4ccc(F)cc4Cl)ccnc3c2)o1`, the XC50 stood at 118 nM. `O=c1cc(NCCCNCc2cc3c(Cl)cc(Cl)cc3[nH]2)[nH]c2ccccc12` gave an XC50 of 862 nM. `COc1cccc(CCc2nc3c(N4CCC(Cc5ccccc5)CC4)cccc3n2CC2CNCCO2)c1` (stereo unspecified) yielded an XC50 of 800 nM. Compound `C=CCn1c(=N)c(C(=O)NCc2ccc(F)cc2)cc2c(=O)n3cccc(C)c3nc21` displayed an XC50 of 1170 nM.

In the case of `O=C(N1CCN(c2cccc(C(F)(F)F)c2)CC1)C(Cl)(Cl)Cl`, the XC50 is 887 nM.

As to `O=C(Nc1cc(C(F)(F)F)ccc1-n1cncn1)C1(c2ccccc2)CC1`, the XC50 was 60.1 nM.

`COc1ccccc1C1CC(c2ccc(C)cc2)=NN1C(=O)c1ccccc1` (stereo unspecified) yielded an XC50 of 886 nM. In turn, `COc1cc2c(cc1O)[C@@H]1[C@H](O)[C@@H](O)C=C3CCN(C2)[C@H]31` [PSEUDOLYCORINE] registered an XC50 of 991 nM.

With `Cc1ccc2c(c1C)NC(=O)C21NN=C(c2ccccc2)S1` (stereo unspecified), the XC50 was determined as 749 nM.

`COc1ccc2nccc([C@@H](O)CN3CCC(NCc4cc5cc(C)ccc5s4)CC3)c2c1` had an XC50 of 636 nM. `CC1(C)CCCN(C(=O)c2cccc(-n3nc(-c4ccc(Cl)cc4)cc3N)c2)C1` registered an XC50 of 712 nM.

Consider `N#Cc1ccc(-c2ccc(C(=O)NC3CCN(CCN4CCC(c5cn(CCOC6CCCCO6)c6ccccc56)CC4)CC3)cc2)cc1` (stereo unspecified), for which the XC50 was found to be 599 nM. On to `c1ccc(C23NC(=Nc4nc5ccccc5[nH]4)NC2(c2ccccc2)NC(=Nc2nc4ccccc4[nH]2)N3)cc1` (stereo unspecified), for which the XC50 came to 276 nM. `CCCCC([C@@H](Cc1ccc2ccccc2c1)C(=O)N[C@H](C(=O)NC)C(C)(C)C)N(O)C=O` (stereo partly specified) registered an XC50 of 142 nM. For `CCc1nc2ccc(C(=O)OC)nc2n1Cc1ccc2oc(-c3ccccc3N)c(Br)c2c1` the value was 822 nM. For the compound `COc1cc(F)c2ncc(Cl)c([C@@H](O)CN3CCC(NCc4ccc5c(n4)NC(=O)CO5)CC3)c2c1`, the XC50 worked out at 124 nM.

`CCNc1cc(C)nc(Nc2ccc(NC(=O)c3ccccc3)cc2)n1` gave an XC50 of 1020 nM. For `CCCCc1ccc2[nH]cc(C3=CCN(C)CC3)c2c1Br` the value was 627 nM; for `CSc1ccc(CN2CCC(NC(=O)c3ccc(-c4ccc(N(C)C)cc4)s3)CC2)cc1`, 1500 nM. For the compound `FC(F)(F)c1ccc2[nH]c(-c3ccc(-c4ccc(CNCCN5CCNCC5)cc4)cc3)nc2c1`, the XC50 is 1120 nM.

In turn, `O=C(C=Cc1ccc(F)cc1)N1CCN(S(=O)(=O)c2ccc(Cl)cc2)CC1` yielded an XC50 of 634 nM. For `Fc1c(CNCC2CCN(CC3CCCCC3)CC2)cccc1C(F)(F)F` the value was 900 nM. For `Cn1nccc1C(=O)NCCNCc1ccc(-c2ccc(-c3nc4cc(C(F)(F)F)ccc4[nH]3)cc2)cc1` the value was 145 nM; for `CCNc1cc(C(=O)N[C@@H](Cc2ccccc2)[C@H](O)CNC2(CC)CC2)cc(N2CCCCS2(=O)=O)c1`, 1610 nM; for `Cc1ccc(C(=O)Nc2cc(S(=O)(=O)N3CCCC3)ccc2OCC(F)(F)F)cc1`, 851 nM. As for `CC1CCCN(Cc2cc(Cl)cc(Cl)c2O)C1` (stereo unspecified), the XC50 is 933 nM. On to `CC1CN(Cc2ccc(-c3ccc(-c4nc5cc(F)ccc5[nH]4)cc3)cc2)CC(C)O1` (stereo unspecified), for which the XC50 worked out at 564 nM. For `COc1ccc(C2CCN(C#N)C2)cc1OC1CCCC1` (stereo unspecified) the value was 228 nM; for `O=C(NCC1Cc2cc(Oc3ccccc3)ccc2O1)c1ccc([N+](=O)[O-])o1` (stereo unspecified), 917 nM.

The compound `CC(c1cccc(S(=O)(=O)NCc2cccc(C(F)(F)F)c2)c1)N1CCC(N2CCCCC2)CC1` (stereo unspecified) came in with an XC50 of 695 nM. As to `CC1CCCC(NCc2c(O)ccc3ccccc23)C1` (stereo unspecified), the XC50 was determined as 931 nM. For `CC[C@H](NC(=O)c1c(CN2CCC(N3CCCCC3)CC2)c(-c2ccccc2)nc2c(Cl)c(O)ccc12)c1ccccc1` the value was 734 nM; for `Cc1cc(NC(=O)Nc2ccc3nccc(N4CCN(C)CC4)c3c2)ccc1Br`, 92.7 nM. For `O=C(/C=C/c1cc(F)cc(C(F)(F)F)c1)N1CCC(CN2CCC(c3c[nH]c4ccccc34)CC2)CC1` the value was 756 nM; for `FC(F)c1nc2ccccc2n1-c1nc(N2CCOCC2)nc(N2CCOCC2)n1` [ZSTK-474], 761 nM.
